Bridge positions count the residues as written; N and C are the ends. Square brackets hold non-standard residues; d marks the D form. Peptide text beside a SMILES is read from it. I, II: the chains in the order shown. hArg = N=C(N)NCCCC[C@H](N)C(=O)O; Ac5c = NC1(C(=O)O)CCCC1; Aib = CC(C)(N)C(=O)O

One experiment addresses T1, PTH receptor 1 (Mus musculus, UniProt P41593).
T1 construct: host or cells: MC3T3-E1 subclone 4
T1 sequence (P41593 27-591): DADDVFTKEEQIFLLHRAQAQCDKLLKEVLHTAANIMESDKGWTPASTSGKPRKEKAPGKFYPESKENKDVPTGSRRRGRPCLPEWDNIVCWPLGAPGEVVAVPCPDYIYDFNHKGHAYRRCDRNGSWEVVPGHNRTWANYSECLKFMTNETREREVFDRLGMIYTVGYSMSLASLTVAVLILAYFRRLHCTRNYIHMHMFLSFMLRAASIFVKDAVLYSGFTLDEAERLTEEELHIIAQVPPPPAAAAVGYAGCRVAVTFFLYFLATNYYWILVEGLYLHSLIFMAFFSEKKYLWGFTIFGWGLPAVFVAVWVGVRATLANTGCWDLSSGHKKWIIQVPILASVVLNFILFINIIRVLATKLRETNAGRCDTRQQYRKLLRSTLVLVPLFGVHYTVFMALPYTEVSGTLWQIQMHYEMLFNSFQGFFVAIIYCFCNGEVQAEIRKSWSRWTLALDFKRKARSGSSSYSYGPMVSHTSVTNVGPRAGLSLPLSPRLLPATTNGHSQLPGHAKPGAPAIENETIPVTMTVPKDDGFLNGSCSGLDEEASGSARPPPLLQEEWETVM
As to the kind of experiment: MC3T3-E1 cAMP efficacy assay. Format: cell-based, murine. Conditions: MC3T3-E1 cells. As to the method: MC3T3-E1 cells were seeded at 10,000 cells/well in 96-microtiter plates and grown overnight before the efficacy assays. On the day of analysis the growth medium was carefully removed by suction. Cells were washed once with 200 μl TB/0.1% […]. The buffer was replaced with 100 μl reaction mixture (±test peptide, +100 μM IBMX) and incubated at 37° C. for 13 min. The reaction was stopped by addition of 25 μl of ice-cold 0.5 M HCl. Cells were in the following incubated on ice for 60 min. 75 μl acetate-buffer were added to each well in a 96-well cAMP FlashPlate. […] FlashPlates were incubated overnight at 4° C., emptied by suction and counted in a TopCounter.
Determinations were performed in triplicates at all doses. Standards were included as single determinations, duplicates or triplicates in each experiment, preferentially on each plate.
Efficacy was evaluated in the concentration range from […].
Concentration-dependent cAMP responses were imported into GraphPad Prism vers. 4, transformed and plotted. Curves were fitted with a function for sigmoidal dose response curve non-linear fit Y=Bottom+(Top-Bottom)/(1+10̂((LogEC50-X))) where X is the logarithm of concentration and Y is the response. Y starts at Bottom and goes to Top with a sigmoid shape. pEC50 and the maximally inducible concentration of cAMP were evaluated. Overall statistical differences were analyzed using one-way ANOVA. Post-hoc comparisons were made by the use of Fisher's Least Significance Test. Results were considered significant, when p was lower than 0.05.

For a further experiment, the target named is T2, Saos-2 PTH1R (Homo sapiens, UniProt Q03431).
T2 construct: endogenous in cells; host or cells: Saos-2
T2 sequence (Q03431 27-593): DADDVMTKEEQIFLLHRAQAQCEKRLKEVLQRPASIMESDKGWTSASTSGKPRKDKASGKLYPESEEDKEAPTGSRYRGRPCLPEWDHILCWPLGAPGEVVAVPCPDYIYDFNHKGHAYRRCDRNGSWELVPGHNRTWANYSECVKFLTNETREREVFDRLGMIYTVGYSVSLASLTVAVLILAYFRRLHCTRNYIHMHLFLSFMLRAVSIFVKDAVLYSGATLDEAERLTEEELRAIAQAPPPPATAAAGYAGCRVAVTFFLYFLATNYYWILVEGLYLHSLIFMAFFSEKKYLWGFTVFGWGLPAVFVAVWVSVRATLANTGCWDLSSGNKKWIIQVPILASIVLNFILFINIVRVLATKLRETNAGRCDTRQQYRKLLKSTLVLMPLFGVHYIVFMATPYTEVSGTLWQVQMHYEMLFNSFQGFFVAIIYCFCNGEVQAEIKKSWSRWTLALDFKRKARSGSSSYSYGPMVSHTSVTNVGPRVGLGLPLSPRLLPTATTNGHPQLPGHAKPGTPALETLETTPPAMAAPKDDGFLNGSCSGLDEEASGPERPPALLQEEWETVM
Kind of experiment: cAMP-efficacy assay in Saos-2 cells. The class given is cell-based. Particulars: for Emax ± SEM: relative effect to the control (SEQ ID NO: 32). The gist of the method:
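Saos-2 cells, grown two days after seeding at 50,000 cells/well, were exposed to peptide for 15 min at 37 °C in Tyrode's buffer with 0.1% BSA and 100 μM IBMX. After stopping with cold HCl, cAMP was measured by radioimmunoassay FlashPlate. EC50, pEC50, Hill slope and Emax came from a four-parameter sigmoidal fit.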

In the case of `CC[C@H](C)[C@H](NC(=O)[C@H](CCC(=O)O)NC(=O)C(C)(C)NC(=O)[C@@H](NC(=O)C1(N)CCCC1)C(C)C)C(=O)N[C@@H](CCC(N)=O)C(=O)N[C@@H](CC(C)C)C(=O)N[C@@H](CCSC)C(=O)N[C@@H](Cc1c[nH]cn1)C(=O)N[C@@H](CCC(N)=O)C(=O)N[C@@H](CCCCNC(=N)N)C(=O)N[C@@H](C)C(=O)N[C@H]1CCCCNC(=O)C[C@@H](C(N)=O)NC(=O)[C@H](CC(C)C)NC(=O)[C@H](Cc2c[nH]c3ccccc23)NC(=O)[C@@H](NC(=O)[C@H](C)NC(=O)[C@H](CCCCNC(=N)N)NC(=O)[C@H](CCC(N)=O)NC(=O)[C@H](Cc2c[nH]cn2)NC(=O)[C@H](CCSC)NC(=O)[C@H](CC(C)C)NC(=O)[C@H](CCC(N)=O)NC(=O)[C@@H](NC(=O)[C@H](CCC(=O)O)NC(=O)C(C)(C)NC(=O)[C@@H](NC(=O)C2(N)CCCC2)C(C)C)[C@@H](C)CC)CCCCNC(=O)C[C@@H](C(N)=O)NC(=O)[C@H](CC(C)C)NC(=O)[C@H](Cc2c[nH]c3ccccc23)NC1=O` [SEQ ID NO: 33, (H-Ac5c-Val-Aib-Glu-Ile-Gln-Leu-Met-His-Gln-Har-Ala-Lys( )-Trp-Leu-Asp( )-NH2)2] (I: H-[Ac5c]V[Aib]EIQLMHQ[hArg]AKWLD-NH2 / II: H-[Ac5c]V[Aib]EIQLMHQ[hArg]AKWLD-NH2; amide I:13-II:16, I:16-II:13 (inferred)), the “agonist strength relative to SEQ ID NO: 30” value at PTH receptor 1 (cAMP) was “eight-fold stronger agonist”. The “Emax ± SEM [pmol/well]” value on PTH receptor 1 (maximally inducible cAMP) was 5.0 ± 0.3 pmol/well. Further, the “Emax ± SEM” value at Saos-2 PTH1R came out at 1.10 ± 0.04.

One may read the EC50 as the concentration giving half of the maximal effect. As for `CC[C@H](C)[C@H](NC(=O)[C@H](CCC(=O)O)NC(=O)C(C)(C)NC(=O)[C@@H](NC(=O)C1(N)CCCC1)C(C)C)C(=O)N[C@@H](CCC(N)=O)C(=O)N[C@@H](CC(C)C)C(=O)N[C@@H](CC(C)C)C(=O)N[C@@H](Cc1c[nH]cn1)C(=O)N[C@@H](CCC(N)=O)C(=O)N[C@@H](CCCCNC(=N)N)C(=O)N[C@@H](C)C(=O)N[C@H]1CCCCNC(=O)C[C@@H](C(N)=O)NC(=O)[C@H](CC(N)=O)NC(=O)[C@H](CC(C)C)NC(=O)[C@H](Cc2c[nH]c3ccccc23)NC1=O` [SEQ ID NO: 19, H-Ac5c-Val-Aib-Glu-Ile-Gln-Leu-Leu-His-Gln-Har-Ala-Lys( )-Trp-Leu-Asn-Asp( )-NH2] (H-[Ac5c]V[Aib]EIQLLHQ[hArg]AKWLND-NH2; lactam 13-17), the EC50 on Saos-2 PTH1R (cAMP, 100 μM IBMX, 37° C. 15 min, suffix of label = salt tested) is 10.2 nM. Also, the “Emax ± SEM” value at Saos-2 PTH1R was 1.05 ± 0.04.

Values taken from patent publication US20100048462A1, “TRUNCATED PTH PEPTIDES WITH A CYCLIC CONFORMATION” (Zealand Pharma A/S, priority 2006, published 2010).
